Reference: ChEMBL document CHEMBL1201862, “PubChem BioAssay data set” (2004)
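Compound exposure: 48 hours, 5 concentrations, 96-well plates. GI50 marks 50% less growth.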 Active and inactive are the calls of the source. Cut-off read from the data, not from the text of the source: active = GI50 up to about 1.1 µM and inactive = higher.

What was measured:
Assay in all cases: DTP human tumour cell line panel, 48 h
[1] = tested on: ACHN
[2] = tested on: IGROV-1
[3] = tested on: HOP-18
[4] = tested on: HCT-116
[5] = tested on: SK-OV-3
[6] = tested on: KM-20L2
[7] = tested on: NCI-H522
[8] = tested on: SF-295
[9] = tested on: LXFL 529
[10] = tested on: SW-620
[11] = tested on: DMS-273
[12] = tested on: HOP-92
[13] = tested on: NCI-H226
[14] = tested on: HCC 2998
[15] = tested on: OVCAR-3
[16] = tested on: KM12
[17] = tested on: LOX IMVI
[18] = tested on: UACC-62
[19] = tested on: DMS-114
[20] = tested on: Malme-3M
[21] = tested on: COLO 205
[22] = tested on: CCRF-CEM
[23] = tested on: UACC-257
[24] = tested on: 786-0
[25] = tested on: A549
[26] = tested on: A498
[27] = tested on: SF-268
[28] = tested on: SNB-78
[29] = tested on: SF-539
[30] = tested on: UO-31
[31] = tested on: M14
[32] = tested on: SK-MEL-5
[33] = tested on: RXF 631
[34] = tested on: HOP-62
[35] = tested on: HCT-15
[36] = tested on: K562
[37] = tested on: OVCAR-5
[38] = tested on: NCI-H23
[39] = tested on: DLD-1
[40] = tested on: SNB-75
[41] = tested on: RPMI-8226
[42] = tested on: OVCAR-4
[43] = tested on: SNB-19
[44] = tested on: SK-MEL-28
[45] = tested on: EKVX
[46] = tested on: HT-29
[47] = tested on: TK-10
[48] = tested on: U-251
[49] = tested on: OVCAR-8
[50] = tested on: SN12C
[51] = tested on: MOLT-4
[52] = tested on: SR
[53] = tested on: NCI-H460
[54] = tested on: CAKI-1
[55] = tested on: RXF 393
[56] = tested on: SK-MEL-2

CC(C)(C)OC(=O)N1N=NC2C3OC(CC3=O)C21 (stereo unspecified)
GI50 [1]: > 100 µM (inactive)
GI50 [2]: > 100 µM (inactive)
GI50 [3]: > 100 µM (inactive)
GI50 [4]: > 100 µM (inactive)
GI50 [5]: 18.6 µM (inactive)
GI50 [6]: > 100 µM (inactive)
GI50 [7]: > 100 µM (inactive)
GI50 [8]: > 10 µM (inactive)
GI50 [9]: > 100 µM (inactive)
GI50 [10]: > 100 µM (inactive)
GI50 [11]: > 100 µM (inactive)
GI50 [12]: > 100 µM (inactive)
GI50 [13]: 2.8 µM (inactive)
GI50 [14]: > 100 µM (inactive)
GI50 [15]: > 100 µM (inactive)
GI50 [16]: > 10 µM (inactive)
GI50 [17]: > 100 µM (inactive)
GI50 [18]: > 100 µM (inactive)
GI50 [19]: > 100 µM (inactive)
GI50 [20]: > 100 µM (inactive)
GI50 [21]: > 100 µM (inactive)
GI50 [22]: 40.9 µM (inactive)
GI50 [23]: > 100 µM (inactive)
GI50 [24]: > 100 µM (inactive)
GI50 [25]: > 100 µM (inactive)
GI50 [26]: > 100 µM (inactive)
GI50 [27]: > 100 µM (inactive)
GI50 [28]: > 100 µM (inactive)
GI50 [29]: > 100 µM (inactive)
GI50 [30]: > 100 µM (inactive)
GI50 [31]: > 100 µM (inactive)
GI50 [32]: > 10 µM (inactive)
GI50 [33]: > 100 µM (inactive)
GI50 [34]: > 100 µM (inactive)
GI50 [35]: > 100 µM
GI50 [36]: > 100 µM (inactive)
GI50 [37]: > 100 µM (inactive)
GI50 [38]: > 100 µM (inactive)
GI50 [39]: > 100 µM (inactive)
GI50 [40]: > 100 µM (inactive)
GI50 [41]: > 100 µM (inactive)
GI50 [42]: > 10 µM (inactive)
GI50 [43]: > 100 µM (inactive)
GI50 [44]: > 100 µM (inactive)
GI50 [45]: > 100 µM (inactive)
GI50 [46]: > 100 µM (inactive)
GI50 [47]: > 100 µM (inactive)
GI50 [48]: > 100 µM (inactive)
GI50 [49]: > 100 µM (inactive)
GI50 [50]: > 100 µM (inactive)
GI50 [51]: > 100 µM (inactive)
GI50 [52]: 77.4 µM (inactive)
GI50 [53]: > 100 µM (inactive)
GI50 [54]: > 100 µM (inactive)
GI50 [55]: > 10 µM (inactive)
GI50 [56]: > 100 µM (inactive)
